Experimental data: PubChem BioAssay AID256 (DTP/NCI, 2004)
Several values for one entry are separate records, joined by “and”; a condition that tells them apart may be missing. Equal values may be shown once. Inconclusive results and toxic doses are left out. Rule for the calls: active = survival T/C of 150% or more; inactive = T/C below 125% in these data.

Tested on: CD2F1 mice, L1210 leukemia ip, survival T/C
Experiment: NCI In Vivo Anticancer Drug Screen. Data for tumor model L1210 Leukemia (intraperitoneal) in CD2F1 (CDF1) mice
Settings: endpoint: mean survival time, higher = longer survival
Summary of the method: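 Antitumor effect is scored in animals hosting a serially transplanted tumor. Values compare compound-dosed animals against vehicle-only controls as a simple quotient.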

[1] = dose: 12.5 mg/kg/injection, schedule: Q01DX009 (ip), vehicle: saline with Tween-80
[2] = dose: 25.0 mg/kg/injection, schedule: Q01DX009 (ip), vehicle: saline with Tween-80
[3] = dose: 50.0 mg/kg/injection, schedule: Q01DX009 (ip), vehicle: saline with Tween-80
[4] = dose: 100.0 mg/kg/injection, schedule: Q01DX001 (ip), vehicle: Klucel (hydroxypropylcellulose) (HPC)
[5] = dose: 200.0 mg/kg/injection, schedule: Q01DX001 (ip), vehicle: Klucel (hydroxypropylcellulose) (HPC)
[6] = dose: 75.0 mg/kg/injection, schedule: Q01DX001 (ip), vehicle: saline
[7] = dose: 150.0 mg/kg/injection, schedule: Q01DX001 (ip), vehicle: saline
[8] = dose: 100.0 mg/kg/injection, schedule: Q04DX002 (ip), vehicle: saline with Tween-80
[9] = dose: 200.0 mg/kg/injection, schedule: Q04DX002 (ip), vehicle: saline with Tween-80
[10] = dose: 400.0 mg/kg/injection, schedule: Q04DX002 (ip), vehicle: saline with Tween-80
[11] = dose: 100.0 mg/kg/injection, schedule: Q01DX009 (ip), vehicle: saline with Tween-80
[12] = dose: 200.0 mg/kg/injection, schedule: Q01DX009 (ip), vehicle: saline with Tween-80
[13] = dose: 100.0 mg/kg/injection, schedule: Q04DX003 (ip), vehicle: saline with Tween-80
[14] = dose: 200.0 mg/kg/injection, schedule: Q04DX003 (ip), vehicle: saline with Tween-80
[15] = dose: 400.0 mg/kg/injection, schedule: Q04DX003 (ip), vehicle: saline with Tween-80
[16] = dose: 100.0 mg/kg/injection, schedule: Q04DX003 (ip), vehicle: Klucel (hydroxypropylcellulose) (HPC)
[17] = dose: 200.0 mg/kg/injection, schedule: Q04DX003 (ip), vehicle: Klucel (hydroxypropylcellulose) (HPC)
[18] = dose: 400.0 mg/kg/injection, schedule: Q04DX003 (ip), vehicle: Klucel (hydroxypropylcellulose) (HPC)
[19] = dose: 12.5 mg/kg/injection, schedule: Q04DX002 (ip), vehicle: saline with Tween-80
[20] = dose: 25.0 mg/kg/injection, schedule: Q04DX002 (ip), vehicle: saline with Tween-80
[21] = dose: 50.0 mg/kg/injection, schedule: Q04DX002 (ip), vehicle: saline with Tween-80

Measured: T/C

O=c1nc(Oc2ccccc2)nc2ncccn12
inactive: dose: 3.12 mg/kg/injection, schedule: Q01DX009 (ip), vehicle: saline with Tween-80 100 % of control and 108 % of control | dose: 6.25 mg/kg/injection, schedule: Q01DX009 (ip), vehicle: saline with Tween-80 100 % of control and 101 % of control | [1] 97 % of control and 101 % of control | [2] 98 % of control and 99 % of control | [3] 97 % of control and 102 % of control

CCCSP(SCCC)SCCC
inactive: dose: 50.0 mg/kg/injection, schedule: Q01DX001 (ip), vehicle: Klucel (hydroxypropylcellulose) (HPC) 107 % of control | [4] 96 % of control | [5] 101 % of control

CCOC(=O)/N=c1\ccccn1O
inactive: [6] 101 % of control | [7] 101 % of control | dose: 300.0 mg/kg/injection, schedule: Q01DX001 (ip), vehicle: saline 105 % of control

COc1ccccc1NC(=O)Oc1c(C)cccc1C
inactive: [8] 92 % of control | [9] 100 % of control | [10] 111 % of control

OC1CCC(CC2CCCCC2)CC1 (stereo unspecified)
inactive: [11] 95 % of control | [12] 92 % of control

CC1(C)CC([NH-])(C(=O)O)CC(C)(C)N1O.CC1(C)CC([NH-])(C(=O)O)CC(C)(C)N1O.[Zn+2]
inactive: [1] 96 % of control | [2] 96 % of control | [3] 96 % of control | [11] 93 % of control

CCCC/C=C/C(O)CC (stereo unspecified)
inactive: [13] 98 % of control | [14] 102 % of control | [15] 96 % of control

CCOC(=O)Cc1c(C)[nH]c2c(C)ccc(C)c12
inactive: dose: 100.0 mg/kg/injection, schedule: Q01DX001 (ip), vehicle: other 95 % of control

O=C(N/N=C/c1ccccc1O)c1ccncc1
inactive: [11] 98 % of control | [13] 98 % of control | [12] 95 % of control | [14] 96 % of control | dose: 400.0 mg/kg/injection, schedule: Q01DX009 (ip), vehicle: saline with Tween-80 98 % of control | [15] 98 % of control

CC(C)C(Br)C(N)=O (stereo unspecified)
inactive: dose: 100.0 mg/kg/injection, schedule: Q01DX009 (ip), vehicle: saline sonified 97 % of control | dose: 200.0 mg/kg/injection, schedule: Q01DX009 (ip), vehicle: saline sonified 89 % of control | dose: 400.0 mg/kg/injection, schedule: Q01DX009 (ip), vehicle: saline sonified 87 % of control

CCOc1ccc(/C=C/c2ccc3ccccc3[n+]2C)cc1OCC
inactive: dose: 25.0 mg/kg/injection, schedule: Q01DX001 (ip), vehicle: saline with Tween-80 102 % of control

N#CCc1ccc2c(c1)Sc1ccccc1O2
inactive: [16] 108 % of control | [17] 98 % of control | [18] 100 % of control

CC1(C)OC2C(COC(=O)Oc3ccccc3)OC(n3cnc4c(=O)[nH]c(N)nc43)C2O1 (stereo unspecified)
inactive: [4] 92 % of control | [5] 93 % of control | dose: 400.0 mg/kg/injection, schedule: Q01DX001 (ip), vehicle: Klucel (hydroxypropylcellulose) (HPC) 92 % of control

C=Cc1ccc(NC(=O)CCn2cnc3c(N)ncnc32)cc1
inactive: dose: 12.5 mg/kg/injection, schedule: Q01DX005 (ip), vehicle: distilled water + Tween-80 100 % of control | dose: 25.0 mg/kg/injection, schedule: Q01DX005 (ip), vehicle: distilled water + Tween-80 102 % of control | dose: 50.0 mg/kg/injection, schedule: Q01DX005 (ip), vehicle: distilled water + Tween-80 98 % of control | dose: 100.0 mg/kg/injection, schedule: Q01DX005 (ip), vehicle: distilled water + Tween-80 98 % of control | dose: 200.0 mg/kg/injection, schedule: Q01DX005 (ip), vehicle: distilled water + Tween-80 98 % of control

Cc1cc(NC(=O)CCc2ccc(N3C(N)=NC(N)=NC3(C)C)cc2)ccc1S(=O)(=O)F
inactive: dose: 0.8 mg/kg/injection, schedule: Q01DX015 (ip), vehicle: water 112 % of control | dose: 4.0 mg/kg/injection, schedule: Q01DX015 (ip), vehicle: water 98 % of control | dose: 20.0 mg/kg/injection, schedule: Q01DX015 (ip), vehicle: water 101 % of control | dose: 100.0 mg/kg/injection, schedule: Q01DX015 (ip), vehicle: water 110 % of control | dose: 500.0 mg/kg/injection, schedule: Q01DX015 (ip), vehicle: water 113 % of control

CCN(CC)c1cc(Cl)ccc1C
inactive: [19] 98 % of control | [20] 95 % of control | [21] 98 % of control | dose: 100.0 mg/kg/injection, schedule: Q01DX001 (ip), vehicle: saline sonified 101 % of control | dose: 200.0 mg/kg/injection, schedule: Q01DX001 (ip), vehicle: saline sonified 95 % of control | dose: 400.0 mg/kg/injection, schedule: Q01DX001 (ip), vehicle: saline sonified 86 % of control

CC(C)(C)OC(=O)C(CC(=O)O)=C(c1ccccc1)c1ccccc1
inactive: dose: 100.0 mg/kg/injection, schedule: Q01DX009 (ip), vehicle: Klucel (hydroxypropylcellulose) (HPC) 102 % of control | [16] 101 % of control | dose: 200.0 mg/kg/injection, schedule: Q01DX009 (ip), vehicle: Klucel (hydroxypropylcellulose) (HPC) 100 % of control | [17] 103 % of control | dose: 400.0 mg/kg/injection, schedule: Q01DX009 (ip), vehicle: Klucel (hydroxypropylcellulose) (HPC) 104 % of control | [18] 109 % of control

COc1cc2c(cc1OC)C1=NN(c3ccccc3)C(=O)C1CC2 (stereo unspecified)
inactive: [8] 103 % of control | [9] 95 % of control | [10] 95 % of control

CCCCCCC[CH2][Sn]1([CH2]CCCCCCC)[O]C2C(CO)OC(n3cnc4c(=O)[nH]c(N)nc43)C2[O]1 (stereo unspecified)
inactive: dose: 1.56 mg/kg/injection, schedule: Q01DX005 (ip), vehicle: other 96 % of control | dose: 3.13 mg/kg/injection, schedule: Q01DX005 (ip), vehicle: other 98 % of control | dose: 6.25 mg/kg/injection, schedule: Q01DX005 (ip), vehicle: other 102 % of control | dose: 12.5 mg/kg/injection, schedule: Q01DX005 (ip), vehicle: other 104 % of control and 106 % of control

CO[C@]12[C@@H](COC(=O)NCCO)C3=C(C(=O)C(C)=C(N)C3=O)N1C[C@@H]1[C@H]2N1C (stereo partly specified)
inactive: dose: 12.5 mg/kg/injection, schedule: Q01DX009 (ip), vehicle: saline 112 % of control | dose: 50.0 mg/kg/injection, schedule: Q01DX009 (ip), vehicle: saline 119 % of control | [6] 114 % of control | [7] 116 % of control | dose: 200.0 mg/kg/injection, schedule: Q01DX009 (ip), vehicle: saline 112 % of control

NC(=O)N/N=C\c1ccco1
inactive: [13] 102 % of control

O=C1CCCCCCC(=O)CCCCCC1
inactive: [19] 105 % of control | [20] 101 % of control | [21] 105 % of control

CC1(C(=O)O)CCCC1C(CCC(=O)O)C(=O)O (stereo unspecified)
inactive: dose: 100.0 mg/kg/injection, schedule: Q04DX003 (ip), vehicle: saline 98 % of control | dose: 200.0 mg/kg/injection, schedule: Q04DX003 (ip), vehicle: saline 96 % of control | dose: 400.0 mg/kg/injection, schedule: Q04DX003 (ip), vehicle: saline 96 % of control
